Patent US5866609A, “Substituted vinylurea derivatives and medicine containing the same” (SS Pharmaceutical Co., Ltd., priority 1996, dated 1999)

Key:
[1] = target: T1, ACAT of rat liver microsome (Rattus norvegicus, UniProt Q7TQM4); assay: inhibitory activity against ACAT using rat liver microsome; format: biochemical; settings: 5 min; 100 nM of each compound; Mean + S.D.; n = 3; 37° C. for 5 minutes; vs DMSO control; read-out: Inhibition rate against ACAT activity in rat liver microsome (%)
T1 construct: from tissue; host or cells: rat liver microsomes
T1 sequence (Q7TQM4 1-524): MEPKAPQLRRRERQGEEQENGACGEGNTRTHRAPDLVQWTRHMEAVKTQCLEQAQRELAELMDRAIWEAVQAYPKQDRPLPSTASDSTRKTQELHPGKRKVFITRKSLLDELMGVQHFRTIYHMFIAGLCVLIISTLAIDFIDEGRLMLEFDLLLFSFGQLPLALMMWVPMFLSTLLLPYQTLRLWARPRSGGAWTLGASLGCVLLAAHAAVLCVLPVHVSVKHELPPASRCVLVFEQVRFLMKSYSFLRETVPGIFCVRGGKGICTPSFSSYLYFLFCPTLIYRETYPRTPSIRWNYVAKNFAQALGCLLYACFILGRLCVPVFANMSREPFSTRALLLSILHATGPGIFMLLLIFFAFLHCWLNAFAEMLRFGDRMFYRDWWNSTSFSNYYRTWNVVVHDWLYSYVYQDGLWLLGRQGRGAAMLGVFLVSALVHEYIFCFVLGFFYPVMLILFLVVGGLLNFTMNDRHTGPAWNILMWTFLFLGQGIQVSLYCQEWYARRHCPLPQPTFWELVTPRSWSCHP
Experimental: - ii) Test for inhibitory activity against ACAT using rat liver microsome
The ACAT activity of rat liver microsome was measured as the radioactivity of cholesteryl oleate produced from [^14 C]oleoyl-CoA and endogenous cholesterol.
More specifically, [^14 C]oleoyl-CoA and delipidized BSA were added to a rat liver microsome fraction prepared in accordance with a method known per se in the art to conduct a reaction at 37° C. for 5 minutes. After the reaction, the lipid in the reaction mixture was extracted with hexane, and the extract was dried to solid under reduced pressure. After the resultant residue was then developed (developing solvent: diethyl ether/hexane/acetic acid 80/20/1) by TLC, the amount of cholesteryl oleate formed was determined by an imaging plate.

ACAT in J774 cells = target: T2, ACAT in J774 cells (Mus musculus, UniProt Q61263); assay: inhibitory activity against ACAT using J774 cells; format: cell-based; settings: 100 nM of each compound, mean ± S.D., n = 3, 4 hours at 37° C., vs DMSO control, read-out: Inhibition rate against ACAT activity in J774 cells (%)
T2 construct: endogenous in cells; host or cells: J774 cells (mouse macrophage-like)
T2 sequence (Q61263 1-540): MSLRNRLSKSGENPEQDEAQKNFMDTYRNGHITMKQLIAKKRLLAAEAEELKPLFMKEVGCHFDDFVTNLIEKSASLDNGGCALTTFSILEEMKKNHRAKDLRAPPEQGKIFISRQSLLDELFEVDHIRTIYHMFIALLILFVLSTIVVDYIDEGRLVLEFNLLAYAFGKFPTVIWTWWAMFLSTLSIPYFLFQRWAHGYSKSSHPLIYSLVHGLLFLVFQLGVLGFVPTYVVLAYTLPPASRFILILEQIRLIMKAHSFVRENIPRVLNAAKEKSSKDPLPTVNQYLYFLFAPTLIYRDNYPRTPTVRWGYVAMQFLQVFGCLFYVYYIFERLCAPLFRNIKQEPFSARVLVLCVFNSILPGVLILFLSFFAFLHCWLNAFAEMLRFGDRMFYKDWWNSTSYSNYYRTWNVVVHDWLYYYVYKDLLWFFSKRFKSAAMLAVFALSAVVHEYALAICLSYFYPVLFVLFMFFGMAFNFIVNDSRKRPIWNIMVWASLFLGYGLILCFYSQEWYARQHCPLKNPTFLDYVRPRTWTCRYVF
Experimental: i) Test for inhibitory activity against ACAT using J774 cells:
The ACAT activity of J774 cells was measured as the radioactivity of cholesteryl oleate produced from [^14 C]oleic acid and cholesterol which were added to a culture solution.
Added to the cells were [^14 C]oleic acid, delipidized BAS (bovine serum albumin), […] (0.3M glucose solution containing cholesterol and phosphatidylcholine at a weight ratio of 2:1) and 25-hydroxycholesterol to culture the cells for 4 hours at 37° C. under 5% CO2. After the culturing, the cultured cells were disrupted with a 1% SDS (sodium lauryl sulfate) solution, and the lipid in the disrupted solution was extracted with hexane. The extract was dried to solid under reduced pressure. After the resultant residue was then developed (developing solvent: diethyl ether/hexane/acetic acid=80/20/1) by TLC (thin-layer chromatography), the amount of cholesteryl oleate formed was determined by an imaging plate.

Structure (SMILES) | inhibition at 0.1 µM [1] [%] | inhibition at 0.1 µM (ACAT in J774 cells) [%]
COc1ccc(C(=CNC(=O)Nc2c(C(C)C)cccc2C(C)C)c2ccc(OC)cc2)cc1 [Compound 3] | 7.87 ± 9.26 | 77.8 ± 4
Cc1cc2ncc(NC(=O)Nc3ccc(F)cc3F)c(-c3ccccc3Cl)c2cc1C [TMP-153] | 82.3 ± 2.79 | 36.9 ± 11.9
